Tests used:
VEGF [1] = test: ELISA of VEGF expression in chondrosarcoma cells after transfection; format: cell-based, human
Experimental: (§1) Cell lines: Human primary chondrocytes and chondrosarcoma cell lines were cultured as previously described (Kulshreshtha et al., Cell Cycle. 2007; 6:1426-1431). CS-1 (a gift from Dr. Francis Hornicek, Harvard Medical School, Boston, Mass.) was cultured in Gibco RPMI 1640 Medium (Life Technologies, Grand Island, N.Y.), with 10% FBS in a humidified incubator (NuAire Inc, Plymouth, Minn.) under 5% CO2 and either normoxia (ambient oxygen) or hypoxia (2% O2)(11). CS-1 was derived from human grade III chondrosarcoma and metastasizes in a xenograft mouse model(Susa M, Morii T, Yabe H, Horiuchi K, Toyama Y, Weissbach L, et al. Alendronate inhibits growth of high-grade chondrosarcoma cells. Anticancer Res. 2009 June; 29(6):1879-88.). All cells were cultured in a humidified incubator (NuAire Inc, Plymouth, Minn., USA) under 5% CO2 and either normoxia or hypoxia (2% O2) (Lin et al., J Orthop Res. 2004; 22:1175-1181).
Transfections were performed with GenMute transfection reagent (SignaGen Laboratories, Gaithersburg, Md.). pmiRZIP lentivector expressing anti-miR-181a or control sequence (SBI, Mountain View, Calif.) was used for permanent miR-181a knockdown experiments. Transduction-ready FIV-based pseudoviral particles were generated using pPACK-H1 Lentivector Packaging System together with 293TN cell line (SBI), at a titer of 1.06×10^9 IFU/ml. Control was Lenti-scramble Hairpin control pseudoviral particles at a titer of 1×10^9 IFU/ml. Cells were cultured in 12-well plates at a density of 1×10^5/well for 1 day, infected by pseudoviral particles (using a multiplicity of infection of 100 viruses per cell) and cultured for 72 hrs, then selected for puromycin (5 μg/ml) resistance for stable cell lines. Stably transduced cells were used for vitro and in vivo experiments.
ELISA: Conditioned medium was obtained 72 hours after transfection. Soluble VEGF-165 and MMP1 were detected using VEGF and MMP1 Immunoassay kits (R&D Systems, Minneapolis, Minn.) according to manufacturer's instructions. VEGF-165 and MMP1 levels were measured two times for each condition and with normalization to the number of cells at the end of the culture period. Each experiment was repeated three times. Twenty mg of xenograft tumor tissue in RIPA buffer containing proteinase inhibitors (Roche) was homogenized on ice using TissueRuptor (Qiagen). Tissue lysates were centrifuge at 14000 rpm for 30 min, supernatant saved at −80° C. for later use. VEGF-165 levels in xenograft tumor lysates were normalized to total protein.

thrombospondin-1 (TSP-1) = test: Angiogenesis antibody array in chondrosarcoma cells (TSP-1); format: cell-based, human; conditions: vs miR control; FIG. 3
Experimental: (§2) Angiogenesis antibody array: Human Angiogenesis Array Kit is a membrane-based sandwich immunoassay. Samples are mixed with a cocktail of biotinylated detection antibodies and then incubated with the array membrane which is spotted in duplicate with capture antibodies to specific target proteins. Captured proteins are visualized using chemiluminescent detection reagents. The signal produced is proportional to the amount of bound analyte. It is sensitive and economical tool to simultaneously detect the relative levels of 55 angiogenesis-related proteins in a single sample.

VEGF [2] = test: Angiogenesis antibody array in chondrosarcoma cells (VEGF); format: cell-based, human; conditions: vs miR control; FIG. 3
Experimental: as §2

[3] = system: placental growth factor (PLGF); test: Angiogenesis antibody array in chondrosarcoma cells (PLGF); format: cell-based, human; conditions: vs miR control; FIG. 3
Experimental: as §2

chondrosarcoma cells = test: CyQUANT cell proliferation assay; format: cell-based, human
Experimental: as §1
Cell proliferation assay: CyQUANT® Cell Proliferation Assay Kit according to manufacturer's protocol

Met = test: Western blot of Met protein in chondrosarcoma cells; format: cell-based, human; conditions: vs miRNA control; FIG. 5
Excerpt: Western blot: Cell or tumor lysates containing forty μg of protein were separated via SDS-PAGE (Bio-Rad, Hercules, Calif.) and probed with antibodies for VEGF (VEGFA), MMP-1, SSX, and actin (Santa Cruz Biotechnology, Santa Cruz, Calif.). The fluorescent signals were detected using a fluorescently-labeled secondary goat anti-rabbit antibody (Alexa Fluor 680) (Molecular Probes, Eugene, Oreg.) and analyzed on Licor Odyssey Scanner (LI-COR Biosciences, Lincoln, Nebr.). Western Blot analyses were performed as previously described with specific antibodies (IMGNEX, San Diego, Calif.) and actin antibody (Santa Cruz Biotechnology, Santa Cruz, Calif.). Protein concentrations were determined using the Quick Start Bradford protein assay (Bio-Rad).

SSX1 = test: qRT-PCR of SSX1 mRNA in chondrosarcoma cells; format: cell-based, human; conditions: 20 nM; vs control cells or anti-miR-34a; FIG. 10A
Experimental: qRT-PCR: miR expression evaluated with qRT-PCR using Hs_miR-181a primer 5′-AACAUUCAACGCUGU-CGGUGAGU-3′ (SEQ ID NO:198) and 1280: 5′UCCCACCGCUGCCACCC-3′ (SEQ ID NO:199) (Qiagen). The comparative threshold cycle (Ct) method, i.e., 2-ΔΔCt method is used to calculate fold amplification. For quantification of mRNA, total RNA was isolated from chondrocytes, CS-1 cells, and xenograft mouse tumors using the RNAqueous® Kit (Ambion, Austin, Tex., USA). SYBR real-time PCR was carried out using two-step real-time qRT-PCR (Qiagen) with normalization to 18S rRNA (18S). The comparative threshold cycle (Ct) method, i.e., the 2-ΔΔCt method, was used for the calculation of fold amplification. Each experiment was evaluated with three PCR reactions and each experiment was repeated three times, the sample size necessary to maintain power at 0.80 to detect a 50% decrease with an alpha of 0.025 (one-tailed t-test).
ELISA, western blot, qRT-PCR, and cell proliferation assays were performed as described above.

metastasis = conditions: literature (Sun et al. 2013; Smith et al. 2004); cited from earlier work

miR-126: miScript miRNA mimic of miR-126; mature sequence SEQ ID NO: 188 CAUUAUUACUUUUGGUACGCG (listed as RNA, chemistry not given here)
VEGF expression after transient transfection (ELISA) (VEGF [1]; 20 nM miR-126, 80 nM anti-miR-126, normoxic and hypoxic conditions, FIG. 2 bottom): reduced VEGF expression | VEGF expression (ELISA) (VEGF [1]; 10-80 nM of miR-126, normoxia and hypoxia (2% oxygen), FIG. 2 top): inhibited VEGF expression in a dose-dependent manner | TSP-1 expression (angiogenesis antibody array) (thrombospondin-1 (TSP-1)): reduces the expression | VEGF expression (angiogenesis antibody array) (VEGF [2]): reduces the expression | PLGF expression (angiogenesis antibody array) [3]: reduces the expression | chondrosarcoma cell growth over time (chondrosarcoma cells; 20 nM miR-126 vs control miR, FIG. 6): grew more slowly over time | Met protein expression (western blot) (Met): expression of Met protein decreased

miR-34a: miR-34a mimic, the same sequence as miR-34a (guide AACAUUCAACGCUGUCGGUGAGU; synthetic mimic, further chemistry not given here)
VEGF protein expression (ELISA, western blot) (VEGF [1]; 20 nM, vs control miR, control anti-miR or anti-miR-34a, FIG. 7A-7C, p<0.02, n=3): significantly decreased expression of VEGF protein | VEGF expression over time (ELISA) (VEGF [1]; secreted VEGF, vs control miR, FIG. 8, p<0.001): decreased VEGF expression over time | SSX1 mRNA expression (qRT-PCR) (SSX1): decreased SSX1 mRNA expression | chondrosarcoma cell growth rates over time (chondrosarcoma cells; miR-34a vs control miR, FIG. 9, p<0.001): significantly decreased growth rates over time

c1cc(CN2CCCNCCNCCCNCC2)ccc1CN1CCCNCCNCCCNCC1 [AMD3100, plerixafor]
metastasis in mice (metastasis): reduce metastasis
